Biological target: human Pin1 (Homo sapiens, UniProt Q13526)
Assay: IC50 measurement of inhibitors for Pin1 (chymotrypsin-coupled peptidyl-prolyl isomerase assay, SucAEPF-pNA)
Format: biochemical
Settings: cis substrate SucAEPF-pNA 43.2 μM, 31 mM HEPES pH 7.8, 4° C., absorbance at 390 nm; read-out: IC50 value for the inhibition of human Pin1 peptidyl-prolyl isomerase activity
Description: Measurement of human Pin1 peptidyl-prolyl isomerase activity. The concentration of the cis conformation of substrate, SucAEPF-pNA, was determined by the UV absorbance of pNA (ε=12250 at […]) after cleavage by α-chymotrypsin. The cis component of the substrate was approximately 51%. The assay buffer (1050 μL of 35 mM HEPES, pH 7.8 at 0° C.; final concentration 31 mM HEPES) and Pin1 (10 μL of a 8.0 μM stock solution, concentration measured by Bradford assay, final concentration 67 nM) were pre-equilibrated in the spectrometer until the temperature reached 4.0° C. Immediately before the assay was started, 120 μL of ice-cooled α-chymotrypsin solution (60 mg/mL in 0.001 M HCl; final concentration 6 mg/mL) was added. Additional substrate solvent (0.47 M LiCl/TFE) was added as needed to bring the total volume of substrate and cosolvent to 10 μL. The peptide substrate, dissolved in dry 0.47 M LiCl/TFE, was added to the cuvette via syringe and the solution was mixed vigorously by inversion 3 times. The final volume in a semi micro 1 cm path length polystyrene cell was 1.2 mL.
IC50 measurement of inhibitors for Pin1. Human Pin1 was assayed at a cis substrate concentration of 43.2 μM. […] After a mixing delay of 6-8 sec, the progress of the reaction was monitored by absorbance at 390 nm for 90 sec.

Sequence of human Pin1 (Q13526 whole entry): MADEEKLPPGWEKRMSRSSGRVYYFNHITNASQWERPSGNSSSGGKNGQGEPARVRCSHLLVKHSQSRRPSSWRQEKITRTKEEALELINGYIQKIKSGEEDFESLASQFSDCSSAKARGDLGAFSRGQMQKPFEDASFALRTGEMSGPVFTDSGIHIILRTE

Compound CC(=O)N[C@@H](Cc1ccccc1)C(=O)N[C@@H](Cc1ccc(O)cc1)C(=O)N[C@H](/C=C1/CCC[C@H]1C(=O)N[C@@H](CCCNC(=N)N)C(N)=O)COP(=O)(O)O [Ac-Phe-Tyr-phosphoSer-Ψ[(Z)CH═C]-Pro-Arg-NH2] has an IC50 of 970 nM.

From patent publication US20080261923A1, “Alkene Mimics” (priority 2004, published 2008)
